Laboratory results: ChEMBL document CHEMBL5647687, “Beta-adrenoceptor control of peroxidase synthesis in nasal glands” (Ann Otol Rhinol Laryngol, 1990)
The source made the active and inactive calls.

Experiments:
Format in all cases: functional, organism-based
Felis catus [1] = test: Increase in granule content containing the peroxidase reaction product discharged into acinar lumen in cat at 0.3 mg/kg, iv after 20 mins
Felis catus [2] = test: Reduction in secretion rate of electron dense peroxidase-positive granules in cat at 0.3 mg/kg, iv after 60 mins
Felis catus [3] = test: Effect on peroxidase reaction product in r-ER, Golgi complex, and secretory granules in acinar cells of cat at 0.3 mg/kg, iv dosed 10 mins before dosing of 7.3 mg/kg, iv propranolol and measured after 20 mins post ligand dose
Felis catus [4] = test: Effect on peroxidase reaction product in r-ER, Golgi complex, and secretory granules in acinar cells of cat at 0.3 mg/kg, iv dosed 10 mins before dosing of 7.3 mg/kg, iv propranolol and measured after 60 mins post ligand dose
Felis catus [5] = test: Effect on activity of peroxidase in acinar cells of cat at 0.3 mg/kg, iv dosed 10 mins before dosing of 7.3 mg/kg, iv propranolol and measured after 20 mins post ligand dose
Felis catus [6] = test: Effect on activity of peroxidase in acinar cells of cat at 0.3 mg/kg, iv dosed 10 mins before dosing of 7.3 mg/kg, iv propranolol and measured after 60 mins post ligand dose
Felis catus [7] = test: Effect on distribution of peroxidase in acinar cells of cat at 0.3 mg/kg, iv dosed 10 mins before dosing of 7.3 mg/kg, iv propranolol and measured after 20 mins post ligand dose by electron microscopy
Felis catus [8] = test: Effect on distribution of peroxidase in acinar cells of cat at 0.3 mg/kg, iv dosed 10 mins before dosing of 7.3 mg/kg, iv propranolol and measured after 60 mins post ligand dose by electron microscopy
Felis catus [9] = test: Effect on localization of peroxidase in rough endoplasmic reticulum of cat at 7.3 mg/kg, iv administered as single dose measured after 30 mins by electron microscopy
Felis catus [10] = test: Effect on activity of peroxidase in cat acinar cells at 7.3 mg/kg, iv administered as single dose measured after 30 mins
Felis catus [11] = test: Effect on localization of peroxidase in rough golgi complex of cat at 7.3 mg/kg, iv administered as single dose measured after 30 mins by electron microscopy; conditions: Golgi body
Felis catus [12] = test: Effect on localization of peroxidase in secretory granules of cat at 7.3 mg/kg, iv administered as single dose measured after 30 mins by electron microscopy
Felis catus [13] = test: Reduction in peroxidase-positive secretory granules in cat at 7.3 mg/kg, iv administered as single dose measured after 5 hrs by electron microscopy
Felis catus [14] = test: Increase in electron-lucent secretory granules in cat at 7.3 mg/kg, iv administered as single dose measured after 5 hrs by electron microscopy
Felis catus [15] = test: Increase in secretory granules without peroxidase activity in cat at 7.3 mg/kg, iv administered as single dose measured after 9 hrs by electron microscopy
Felis catus [16] = test: Decrease in Peroxidase activity in acinar cells of the nasal glands of cat at 8 mg/kg, iv dosed over 7 hours
Felis catus [17] = test: Effect on activity of peroxidase in cat in rough golgi complex at 7.3 mg/kg, iv administered as single dose measured after 5 hrs; conditions: Golgi body
Felis catus [18] = test: Effect on activity of peroxidase in cat in rough golgi complex at 7.3 mg/kg, iv administered as single dose measured after 9 hrs; conditions: Golgi body
Felis catus [19] = test: Effect on activity of peroxidase in cat rough endoplasmic reticulum at 7.3 mg/kg, iv administered as single dose measured after 5 hrs
Felis catus [20] = test: Effect on activity of peroxidase in cat rough endoplasmic reticulum at 7.3 mg/kg, iv administered as single dose measured after 9 hrs
Felis catus [21] = test: Decrease in Peroxidase activity in rough endoplasmic reticulum of cat at 8 mg/kg, iv dosed over 7 hours

Measured: Activity

CC(C)NCC(O)c1ccc(O)c(O)c1 (stereo unspecified)
inactive: Felis catus [3] | Felis catus [4] | Felis catus [5] | Felis catus [6] | Felis catus [7] | Felis catus [8]
active: Felis catus [1] | Felis catus [2]

CC(C)NCC(O)COc1cccc2ccccc12 (stereo unspecified)
active: Felis catus [13] | Felis catus [14] | Felis catus [15] | Felis catus [16] | Felis catus [21]
inactive: Felis catus [9] | Felis catus [10] | Felis catus [11] | Felis catus [12] | Felis catus [17] | Felis catus [18] | Felis catus [19] | Felis catus [20]
